Source: patent US20260193659A1, “METHODS FOR TREATING MONGE'S DISEASE” (The Regents of the University of California, priority 2022, published 2026)
“Also recorded” adds a separate entry of the source.

Legend:
Monge's disease = details: patients; cited from earlier work
CMS cells = experiment: BFU-E colony forming assay with CK2 inhibitors, iPSC-derived CD34+ cells under hypoxia; type: cell-based, human; details: 5% O2, 14 days, TBB 25 μM, 50 µM, 100 μM, CX4945 2.5, 5, 10 μM
Description: (§1) CD34^+ cells were isolated from iPSC-derived EBs as follows. After 7 days of differentiation, EBs were harvested by spinning at 400 g for 10 minutes. After centrifugation, EBs were dissociated into single cells using Accutase treatment for 10 minutes and then filtered through a 60 μm cell strainer (Falcon). CD34^+ cells were isolated from this cell suspension using EasySep Human CD34 Positive Selection Kit 11 ([…] Technologies, 17856) per the manufacturer's instructions. These iPSC-derived CD34+ cells were used in subsequent qPCR and colony-forming assays.
CD34^+ cells used in this assay were derived from iPSC-generated EBs as described herein. CD34^+ cells were plated at a density of 10^5 cells per 35 mm dish combined with MethoCult H4034 Optimum Media ([…] Technologies, 04044) and 2% FBS. Dishes were incubated at 37° C. in an incubator with 5% CO2 and 5% O2 for 14 days, at which time colonies were scored for BFU-E and CFU-granulocyte, erythrocyte, monocyte, megakaryocyte (CFU-GEMM).
TBB (catalog ab120988) and CX4945 (catalog S2248) were purchased from Abcam and Selleckcam, respectively. Dose-response experiments were performed with the inhibitors using the following concentrations in the colony forming assays using iPSC-derived CD34^+ cells as described herein: TBB (25 μM, 50 µM, and 100 μM) and CX4945 (2.5 μM, 5 μM, and 10 μM).

LINC02228 (HIKER) = experiment: KD efficiency of LINC02228 (HIKER) by ASO, qPCR; type: cell-based, human; details: CMS cells
Description: Locked nucleic acids (LNAs) targeting HIKER/LINC02228 and LINC00431 were designed and synthesized by Exiqon. The most efficient ASO for each LNA was initially tested in the pilot experiment with and without transfection reagent (Lipofectamine 3000. Life Technologies. L3000-008) in a dose-response experiment at a concentration of 10 nM, 25 nM, 50 nM, and 100 nM. The uptake and the effect of ASO were monitored by qPCR at various stages (iPSC stage and CD34+ cells isolated from EBs). For both lncRNAs, the optimal delivery for all the stages was at the 50 nM concentration without the transfection reagent.
as §1

zebrafish embryos = experiment: Hemoglobin staining (o-dianisidine) of zebrafish embryos injected with csnk2b morpholino; type: in vivo, Zebrafish (Danio rerio); details: 2 dpf
Description: Zebrafish (Danio rerio) were raised in a circulating aquarium system on a 14-hour light/10-hour dark cycle at 28.5° C., following standard husbandry procedures.
The morpholino antisense oligo (MO) 5′-[…]-3′ (SEQ ID NO: 23) was synthesized to block the translation initiation of csnk2b, and the 5-mismatch oligo 5′-[…]-3′ (SEQ ID NO: 24) was synthesized as a specificity control (Gene Tools). For synthesizing CSNK2B rescue mRNA that is resistant to the translation blocking MO, the full-length csnk2b coding sequence with 4 base pairs of silent mutations in the MO recognition region was cloned into the pCS2-vector (Azenta Life Sciences), in which the first 24 base pairs of the CSNK2B coding sequence became 5′-[…]-3′ (SEQ ID NO: 25). The csnk2b capped mRNA was synthesized using the mMESSAGE mMACHINE Kit (Ambion, AM1340). Microinjection was performed on WT AB embryos at the 1- to 2-cell stages.
Embryos at 2 dpf were dechorionated and anesthetized with 0.016% tricaine (Fluka, A5040), followed by a 15-minute incubation in 0.6 mg/mL o-dianisidine solution (SigmaAldrich, D9143). This solution was prepared in 0.65% H2 O2 (EMD, HX0647-3), 40% ethanol (KOPTEC, 89125), and 10 mM sodium acetate (Fisher Chemical, S210-500) at room temperature. Stained embryos were washed twice with 1×PBS (Gibco, Thermo Fisher Scientific, 14200166) and then fixed in 4% paraformaldehyde (PFA) (SigmaAldrich, P6148). Hemoglobin signal was observed under a light microscope and quantified according to the area and intensity in the heart and common cardinal vein; embryos were categorized into normal, medium, and low hemoglobin levels.

For `CC(=O)Nc1nnc(S(N)(=O)=O)s1` [Acetazolamide], the “clinical response in Monge's disease” value (Monge's disease) is listed as “mild response and relief of symptoms”.

For `Brc1c(Br)c(Br)c2n[nH]nc2c1Br` [TBB], the “BFU-E colonies (erythroid colony numbers)” value (CMS cells) was “significant changes were observed in the colony numbers in a dose-dependent manner; also recorded: decreases BFU-E colonies in CMS cells in a dose-dependent manner”.

In the case of “ASO-1: LNA gapmer ASO targeting HIKER/LINC02228, SEQ ID NO 1: G*G*T*T*G*C*T*T*T*C*A*G*G*C*C*C*C*T*T*A (antisense GGTTGCTTTCAGGCCCCTTA; all phosphorothioate, sugars by position and methylation of C not given here; LNA gapmer)”, the “KD efficiency, ranking among the 3 ASOs” value (LINC02228 (HIKER)) is reported as “highest KD efficiency”.

For “MO: morpholino antisense oligo 5′-CGACACTTCCTCTGAGCTACTCATG-3′ (SEQ ID NO: 23) blocking translation initiation of csnk2b (all phosphorodiamidate morpholino (PMO))”, the hemoglobin levels (zebrafish embryos; 1 ng dose) was “minimal impact on hemoglobin levels”, the hemoglobin versus controls (zebrafish embryos; 3 ng and 5 ng MO dosage) was “remarkable decrease in hemoglobin” and the “morphants showing moderate or low iron staining” value (zebrafish embryos; 3 ng and 5 ng MO) was “more than 97%”. For the same molecule, the “hemoglobin, dose dependence” value (zebrafish embryos; 1, 3 or 5 ng) was “dose-dependent loss of hemoglobin”.
